The results in this text go back to patent publication US20240002391A1, “4-ALKOXYPYRROLO[2,1-F][1,2,4]TRIAZINES AND PREPARATION AND USES THEREOF” (BioSplice Therapeutics, Inc., priority 2022, published 2024).

The subject of experiment [1] is Tau phosphorylation at Thr212 (pThr212) in HEK293T cells transfected with DYRK1A and MAPT. As to the kind of experiment: Tau phosphorylation phosphoTau (Thr212) AlphaLISA assay in HEK293T cells transfected with DYRK1A and MAPT. Type of experiment: cell-based. The note with it: HEK-293T, HEK293T cells transiently transfected with human DYRK1A and MAPT, compound treatment 18-24 hours, read-out: pTau (Thr212) EC50. How it is done: Representative compounds were screened using the assay procedure for tau phosphorylation activity described below.
HEK293T cells (ATCC, CRL3216) cultured in DMEM (Thermo Fisher Scientific, 10566024) supplemented with 10% FBS (Coming, 35-011—CV) and Penicillin/Streptomycin (Thermo Fisher Scientific, 15140163) were seeded in a 75 cm^2 flask at 8.1×10^6 cells/flask. The HEK293T cells were then transiently transfected with 5 μg DYRK1A (NM_001396) human untagged clone (OriGene, SC314641) and 2.5 μg MAPT (441 a.a. Tau gene) (NM_005910) human untagged clone (OriGene, TP313312) using Lipofectamine 3000 (Thermo Fisher Scientific, L30000015) and incubated for 20-30 hours in a humidified incubator at 37° C. and 5% CO^2. Post-incubation, HEK293T cells transfected with the DYRK1A and MAPT expression vectors were harvested and seeded in BioCoat poly-D lysine coated 96-well plates (Coming, 354461) at 3×10^4 cells/well.
The above synthesized compounds were screened using the cell assay procedure to assess decreased Tau phosphorylation at Thr212 (pThr212) described below.
Each compound was dissolved in DMSO (Sigma-Aldrich, D8418-100 mL) as a 10 mM stock. 10 mM stocks were serially diluted 1:3, 10-point dose-response curve and added to the cells with a final concentration ranging from 20 μM to 1.1 nM. Cells were treated with compounds in duplicate and incubated for 18-24 hours in a humidified incubator at 37° C. and 5% CO^2.
Following the overnight compound treatment, cells were lysed with 1X Alpha Surefire Ultra Lysis Buffer (Perkin Elmer, ALSU-LB-100ML) complemented with 1X Halt Phosphatase Inhibitor Cocktail (Thermo Fisher Scientific, 78427) and 1X Halt Protease Inhibitor Cocktail (Thermo Fisher Scientific, 78438). Lysates were spun down at 12,000 g for 10 min to remove any cellular debris and 5 μL of lysates were dispensed into a 384-well Opti-Plate (Perkin Elmer, 6007290) for the measurement of Tau phosphorylation in the phosphoTau (Thr212) AlphaLISA assay. Donor antibody, biotinylated HT7Tau (Thermo Fisher Scientific, MN1000B), and acceptor antibody, pThr212Tau (Thermo Fisher Scientific, 44740G) were both added to the cell lysates at a final concentration of 3 nM and incubated for 1 hour at room temperature. Following incubation of the lysates with the donor and acceptor antibodies, anti-rabbit IgG(Fc specific) AlphaLISA acceptor beads (Perkin Elmer, AL104C) were added at a 10 ug/mL final concentration and incubated for 1 hour at room temperature protected from light. Lastly, AlphaScreen streptavidin donor beads (PerkinElmer, 6760002) were added at 40 ug/mL final concentration and incubated for 1 hour at room temperature protected from light. Plates were read at […] on the EnVision Multilabel Plate Reader (Perkin Elmer). The phospho-Tau (Thr212) AlphaLISA signal was used to plot, draw the curve fitting, and determine each compound's EC50 in Prism (GraphPad).
For orientation: Alpha assays give light when donor and acceptor beads are brought close together.

Experiment [2] addresses recombinant DYRK1A kinase (Homo sapiens (Human), UniProt Q13627). As to the kind of experiment: DYRK1A kinase assay (Ser/Thr 18 peptide Z-lyte FRET). It counts as biochemical. The settings on record: DYRK1A kinase activity, Z-lyte Ser/Thr 18 peptide, 15 μM ATP; method text calls the value IC50; read-out: EC50 (the source's name). An outline of the steps:
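Steps: combine 0.25 μg/mL kinase, 15 μM ATP and 4 μM peptide with test compound; incubate 1 h at room temperature; add diluted development reagent for another hour; read coumarin and fluorescein emission at Ex 400. The emission ratio yields percent phosphorylation, from which IC50 is derived.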

In general, EC50 refers to the concentration that produces a half-maximal response.

For the compound `COc1nc(N[C@H]2CC[C@](C)(O)CC2)nn2ccc(-c3cc(F)c4nccn4c3)c12` [Compound 431, (1r,4r)-4-((5-(8-Fluoroimidazo[1,2-a]pyridin-6-yl)-4-methoxypyrrolo[2,1-f][1,2,4]triazin-2-yl)amino)-1-methylcyclohexan-1-ol], in experiment [1], the EC50 turned out to be 129 nM. Besides, the IC50 in experiment [2] came to 2.3 nM.

Turning to `COc1nc(N[C@H]2CC[C@](C)(O)CC2)nn2ccc(-c3ccc4nnn(C)c4c3)c12` [Compound 3, trans-4-((4-Methoxy-5-(1-methyl-1H-benzo[d][1,2,3]triazol-6-yl)pyrrolo[2,1-f][1,2,4]triazin-2-yl)amino)-1-methylcyclohexan-1-ol], the EC50 in experiment [1] is 197 nM. Moreover, in experiment [2], the IC50 was found to be 1.5 nM.

For the compound `COc1nc(N[C@H]2CCN(C3COC3)C[C@H]2F)nn2ccc(-c3ccc4ncccc4c3)c12` [Compound 318, N-((3R,4S)-3-Fluoro-1-(oxetan-3-yl)piperidin-4-yl)-4-methoxy-5-(quinolin-6-yl)pyrrolo[2,1-f][1,2,4]triazin-2-amine], in experiment [1], the EC50 was 75.4 nM. Moreover, in experiment [2], the IC50 was found to be 4.2 nM.

Consider `COc1nc(N[C@H]2CC[C@](C)(O)CC2)nn2ccc(-c3ccn4nccc4c3)c12` [Compound 20, trans-4-((4-Methoxy-5-(pyrazolo[1,5-a]pyridin-5-yl)pyrrolo[2,1-f][1,2,4]triazin-2-yl)amino)-1-methylcyclohexan-1-ol], for which the EC50 in experiment [1] turned out to be 107 nM. Besides, in experiment [2], the IC50 worked out at 3.4 nM.

For the compound `COc1nc(NC2CCC3(CC2)COC3)nn2ccc(-c3cnc4nccn4c3)c12` [Compound 276, 5-(Imidazo[1,2-a]pyrimidin-6-yl)-4-methoxy-N-(2-oxaspiro[3.5]nonan-7-yl)pyrrolo[2,1-f][1,2,4]triazin-2-amine], the EC50 in experiment [1] worked out at 10.1 nM. Also, the IC50 in experiment [2] came to 0.6 nM.

Regarding `CC[C@]1(O)CC[C@H](Nc2nc(OC)c3c(-c4cnc5nccn5c4)ccn3n2)CC1` [Compound 258, trans-1-Ethyl-4-((5-(imidazo[1,2-a]pyrimidin-6-yl)-4-methoxypyrrolo[2,1-f][1,2,4]triazin-2-yl)amino)cyclohexan-1-ol], in experiment [1], the EC50 was 8.9 nM. In addition, in experiment [2], the IC50 is 0.8 nM.

As to `C[C@]1(O)CC[C@H](Nc2nc(OC3COC3)c3c(-c4ccc5nccnc5c4)ccn3n2)CC1` [Compound 392, trans-1-Methyl-4-((4-(oxetan-3-yloxy)-5-(quinoxalin-6-yl)pyrrolo[2,1-f][1,2,4]triazin-2-yl)amino)cyclohexan-1-ol], the concentration for a half-maximal effect (EC50) in experiment [1] is 25.2 nM. Moreover, the IC50 in experiment [2] is 1.4 nM.

Consider `COc1nc(N[C@@H]2CCC(F)(F)C2)nn2ccc(-c3cnc4nccn4c3)c12` [Compound 943, (R)—N-(3,3-Difluorocyclopentyl)-5-(imidazo[1,2-a]pyrimidin-6-yl)-4-methoxypyrrolo[2,1-f][1,2,4]triazin-2-amine], for which the EC50 in experiment [1] is 57.5 nM. The IC50 in experiment [2] came out at 3.6 nM.

In the case of `COc1nc(N[C@H]2C[C@](C)(O)C2)nn2ccc(-c3ccc4nccn4c3)c12` [Compound 44, trans-3-((5-(Imidazo[1,2-a]pyridin-6-yl)-4-methoxypyrrolo[2,1-f][1,2,4]triazin-2-yl)amino)-1-methylcyclobutan-1-ol], the EC50 in experiment [1] amounted to 48.2 nM.

On to `COc1nc(NC2CCC3(CC2)COC3)nn2ccc(-c3ccc4nnn(CC(F)F)c4c3)c12` [Compound 801, 5-(1-(2,2-Difluoroethyl)-1H-benzo[d][1,2,3]triazol-6-yl)-4-methoxy-N-(2-oxaspiro[3.5]nonan-7-yl)pyrrolo[2,1-f][1,2,4]triazin-2-amine], for which the IC50 in experiment [2] worked out at 3.2 nM.

For the compound `COc1nc(NC23CCC(O)(CC2)C3)nn2ccc(-c3ccc4nnn(CC(F)F)c4c3)c12` [Compound 798, 4-((5-(1-(2,2-Difluoroethyl)-1H-benzo[d][1,2,3]triazol-6-yl)-4-methoxypyrrolo[2,1-f][1,2,4]triazin-2-yl)amino)bicyclo[2.2.1]heptan-1-ol], in experiment [2], the IC50 was 0.3 nM.

Regarding `COc1nc(NC2CCCCC2)nn2ccc(-c3cnc4nccn4c3)c12` [Compound 944, N-Cyclohexyl-5-(imidazo[1,2-a]pyrimidin-6-yl)-4-methoxypyrrolo[2,1-f][1,2,4]triazin-2-amine], the IC50 in experiment [2] turned out to be 1.5 nM.

As to `COc1nc(NC2CCC(=O)N(C)C2)nn2ccc(-c3ccc4nc(C)n(CC(F)F)c4c3)c12` (centres unmarked) [Compound 507, 5-((5-(1-(2,2-Difluoroethyl)-2-methyl-1H-benzo[d]imidazol-6-yl)-4-methoxypyrrolo[2,1-f][1,2,4]triazin-2-yl)amino)-1-methylpiperidin-2-one], the IC50 in experiment [2] worked out at 3.1 nM.

Consider `COc1nc(NC2CCC3(CC2)COC3)nn2ccc(-c3ccc4nncn4c3)c12` [Compound 188, 5-([1,2,4]Triazolo[4,3-a]pyridin-6-yl)-4-methoxy-N-(2-oxaspiro[3.5]nonan-7-yl)pyrrolo[2,1-f][1,2,4]triazin-2-amine], for which the IC50 in experiment [2] came out at 50.3 nM.

With `COc1nc(NC2CCN(CCF)CC2)nn2ccc(-c3ccn4nccc4c3)c12` [Compound 24, N-(1-(2-Fluoroethyl)piperidin-4-yl)-4-methoxy-5-(pyrazolo[1,5-a]pyridin-5-yl)pyrrolo[2,1-f][1,2,4]triazin-2-amine], the IC50 in experiment [2] was 14.3 nM.

Turning to `COc1nc(N[C@H]2C[C@@](C)(NC(C)=O)C2)nn2ccc(-c3ccc4nccnc4c3)c12` [Compound 333, N-(cis-3-((4-Methoxy-5-(quinoxalin-6-yl)pyrrolo[2,1-f][1,2,4]triazin-2-yl)amino)-1-methylcyclobutyl)acetamide], the IC50 in experiment [2] amounted to 1.1 nM.

As for `COc1nc(NC2CCC(=O)N(C)C2)nn2ccc(-c3ccc4nnn(/C=C/F)c4c3)c12` (centres unmarked) [Compound 673, (E)-5-((5-(1-(2-Fluorovinyl)-1H-benzo[d][1,2,3]triazol-6-yl)-4-methoxypyrrolo[2,1-f][1,2,4]triazin-2-yl)amino)-1-methylpiperidin-2-one], the IC50 in experiment [2] is 5.3 nM.

`COc1nc(N[C@H](C)c2ccccn2)nn2ccc(-c3ccn4nccc4c3)c12` [Compound 93, (R)-4-Methoxy-5-(pyrazolo[1,5-a]pyridin-5-yl)-N-(1-(pyridin-2-yl)ethyl)pyrrolo[2,1-f][1,2,4]triazin-2-amine]: the IC50 in experiment [2] came out at 194 nM.

In the case of `COc1nc(N[C@H]2CC[C@@](C)(O)CC2)nn2ccc(-c3ccc4nnn(CC(F)F)c4c3)c12` [Compound 724, (1s,4s)-4-((5-(1-(2,2-Difluoroethyl)-1H-benzo[d][1,2,3]triazol-6-yl)-4-methoxypyrrolo[2,1-f][1,2,4]triazin-2-yl)amino)-1-methylcyclohexan-1-ol], in experiment [2], the IC50 was 1.1 nM.

Take `CNC(=O)[C@]1(C)C[C@@H](Nc2nc(OC)c3c(-c4ccc5ncccc5c4)ccn3n2)C1` [Compound 1038, trans-3-((4-Methoxy-5-(quinolin-6-yl)pyrrolo[2,1-f][1,2,4]triazin-2-yl)amino)-N,1-dimethylcyclobutane-1-carboxamide]: in experiment [2], the IC50 was determined as 0.5 nM.

For `CNC(=O)c1cnn2ccc(-c3ccn4nc(N[C@H]5CC[C@](C)(OC)CC5)nc(OC)c34)cc12` [Compound 405, 5-(4-Methoxy-2-(((1r,4r)-4-methoxy-4-methylcyclohexyl)amino)pyrrolo[2,1-f][1,2,4]triazin-5-yl)-N-methylpyrazolo[1,5-a]pyridine-3-carboxamide], the IC50 in experiment [2] amounted to 0.7 nM.
